Experimental data taken from the SangsterLogP compilation.

Test: method code SF-AS, from DOI: 10.1002/1520-6017(200012)89:12<1525::aid-jps3>3.0.co;2-t
Details: for logD: pH 7.4

logD	logP	Compound
1.1		CCCCCC(=O)NCCCCCN(O)C(=O)CCC(=O)NCCCCCN(O)C(=O)CCC(=O)NCCCCCN(O)C(C)=O
	0.88	CCCCC(=O)NCCCCCN(O)C(=O)CCC(=O)NCCCCCN(O)C(=O)CCC(=O)NCCCCCN(O)C(C)=O
	0.26	CCC(=O)NCCCCCN(O)C(=O)CCC(=O)NCCCCCN(O)C(=O)CCC(=O)NCCCCCN(O)C(C)=O
	-0.5	CC(=O)N(O)CCCCCNC(=O)CCC(=O)N(O)CCCCCNC(=O)CCC(=O)N(O)CCCCCNC(=O)CCC(=O)O
	0.1	CC(=O)NCCCCCN(O)C(=O)CCC(=O)NCCCCCN(O)C(=O)CCC(=O)NCCCCCN(O)C(C)=O
	0.9	CC(=O)N(O)CCCCCNC(=O)CCC(=O)N(O)CCCCCNC(=O)CCC(=O)N(O)CCCCCNC(=O)Cc1ccccc1
1.09		CCCCCCCC(=O)NCCCCCN(O)C(=O)CCC(=O)NCCCCCN(O)C(=O)CCC(=O)NCCCCCN(O)C(C)=O
	0.86	CC(=O)N(O)CCCCCNC(=O)CCC(=O)N(O)CCCCCNC(=O)CCC(=O)N(O)CCCCCNC(=O)c1ccccc1
	-0.1	CC(=O)N(O)CCCCCNC(=O)CCC(=O)N(O)CCCCCNC(=O)CCC(=O)N(O)CCCCCNC=O
	0.42	CCCC(=O)NCCCCCN(O)C(=O)CCC(=O)NCCCCCN(O)C(=O)CCC(=O)NCCCCCN(O)C(C)=O
